Test results taken from the NIST ThermoML archive (doi:10.1021/je2003012).

Test: relative permittivity at various frequencies (dimensionless); wn = mass fraction of the nth substance listed
Details: Liquid, direct capacitance:P =

O=C=O [carbon dioxide] + CCO
relative permittivity
Details	w2 = 0.1	w2 = 0.152
313.1 K, 11000 kPa	2.03	–
313.1 K, 11800 kPa	–	2.42
313.1 K, 12000 kPa	2.05	–
313.1 K, 12700 kPa	2.08	2.45
313.1 K, 13100 kPa	2.09	–
313.1 K, 13700 kPa	2.11	–
313.1 K, 13800 kPa	–	2.47
313.1 K, 14600 kPa	–	2.49
313.1 K, 14800 kPa	2.13	–
313.1 K, 15700 kPa	–	2.52
313.1 K, 15800 kPa	2.15	–
313.1 K, 16800 kPa	–	2.54
313.1 K, 17000 kPa	2.17	–
313.1 K, 17700 kPa	2.18	–
313.1 K, 17800 kPa	–	2.56
313.1 K, 18800 kPa	2.19	2.58
313.1 K, 19500 kPa	–	2.59
313.1 K, 19800 kPa	2.2	–
313.1 K, 20800 kPa	–	2.61
313.1 K, 21600 kPa	–	2.62
313.1 K, 21900 kPa	2.23	–
313.1 K, 22100 kPa	2.23	–
313.1 K, 22400 kPa	2.24	–
313.1 K, 22600 kPa	–	2.63
313.1 K, 23500 kPa	–	2.64
313.1 K, 24100 kPa	2.26	–
313.1 K, 24400 kPa	2.26	–
313.1 K, 24500 kPa	–	2.66
313.1 K, 25500 kPa	–	2.67
313.1 K, 25800 kPa	2.28	–
313.1 K, 26400 kPa	2.28	–
313.1 K, 26500 kPa	–	2.68
313.1 K, 27500 kPa	–	2.69
313.1 K, 27700 kPa	2.3	–
313.1 K, 27800 kPa	2.3	–
313.1 K, 27900 kPa	–	2.7
313.1 K, 28300 kPa	2.3	–
313.1 K, 28400 kPa	–	2.71
313.1 K, 29300 kPa	2.31	2.72
313.1 K, 29500 kPa	2.32	–
322.4 K, 10500 kPa	1.86	–
